Consider one molecule from patent US20090047682A1, “Method of detecting and predicting bronchodilatory response to beta agonist” (COUNCIL OF SCIENTIFIC AND INDUSTRIAL RESEARCH, priority 2004, published 2009).

This assay has as its system β2AR. The settings on record: Indian population; χ2=11.28, df=2, p=0.004.

For `CC(C)(C)NCC(O)c1ccc(O)c(CO)c1` (stereo not shown) [salbutamol], the “association of responder status to treatment with genotype at β2AR gene” value is “strongly associated”.
